Marks after values point to notes of the source that are not given here.
What was measured:
[1] = system: U-87 MG cells; experiment: U-87 MG cell number (count & viability) after docetaxel treatment; format: cell-based; conditions: 25 nM docetaxel, 72 hours, vs vehicle control, not significant
Experimental: (§1) U-87 MG cells may be plated at a density of 8×10^5 cells/150-mm dish. 48 hours after plating, cells may be treated with vehicle control or 25 nM docetaxel for 72 hours. At the end of treatment, cells may be harvested by trypsinization, and an aliquot of live/unfixed cells may be used to determine cell number, PS externalization, and caspase-3/7 activity using a cell analyzer. Remaining cells may be fixed for cell cycle analysis using a cell analyzer and DNA fragmentation analysis by BD LSRII Flow Cytometry as described below.
(§2) U-87 MG cells harvested by trypsinization may be pooled with media plus washes and pelleted by centrifugation. The cells may be re-suspended in complete media diluted 1:10 with PBS (1% FBS/PBS). For determination of count and viability, an aliquot of the cell suspension may be diluted 1:10 with a count & viability reagent, which differentially stains viable and non-viable cells based on their permeability to two DNA binding dyes, and incubated for 5 minutes in the dark at room temperature according to manufacturer's protocol. For detection of phosphatidylserine (PS) externalization, an aliquot of cell suspension appropriately diluted in 1% FBS/PBS may be mixed 1:1 with an Annexin V & dead cell reagent and incubated for 20 minutes in the dark at room temperature according to manufacturer's protocol. […]

[2] = system: U-87 MG cells; experiment: Cell cycle analysis of U-87 MG cells (cell cycle reagent, propidium iodide); format: cell-based; conditions: 25 nM, 72 hour treatment; proportion of cells in cell cycle phase, mean±SD, n=3
Experimental: as §1
Cleavage by active caspase-3/7 releases the dye within the cell and results in translocation to the nucleus, binding to DNA and high fluorescence. For cell cycle analysis, an ethanol-fixed cell suspension may be obtained by taking an aliquot of cell suspension, pelleting by centrifugation, resuspending in PBS, and fixing in 70% ethanol at −20° C. Fixed cells may be washed in PBS/0.2% BSA, pelleted by centrifugation, resuspended in a cell cycle reagent, and incubated for 30 minutes in the dark at room temperature according to manufacturer's protocol. A cell cycle reagent may be a proprietary formulation containing the DNA intercalating dye propidium iodide and RNAse A. The multiparametric fluorescent detection of individual cells may be performed by a cell analyzer, a microcapillary flow cytometer equipped with a 532-nm laser, a forward scatter and two fluorescence (YLW 576/26, RED 680/30) detectors. Data acquisition and analysis of count & viability, Annexin V & dead cell, and caspase-3/7 assays may be done by analysis software. Post-acquisition analysis of cell cycle data may be performed using software (e.g., FlowJo 7.6.5).
Table 5 is a cell cycle analysis of U-87 MG cells after 72 hour treatment with 25 nM docetaxel. At the end of 72 hour treatment, cells may be harvested and cell cycle may be determined by incubating the cells in a cell cycle reagent and following the manufacturer's protocol. Data represent the mean±SD of three independent biological replicates (*p<0.1).

[3] = system: U-87 MG cells; experiment: DNA fragmentation of U-87 MG cells (APO-BRDU, flow cytometry); format: cell-based; conditions: 25 nM, 72 hour treatment; percentage of the cell population, mean±SD, n=2
Experimental: as §1
For analysis of DNA fragmentation, U-87 MG cells may be harvested by trypsinization, collected by centrifugation, fixed in 2% formaldehyde in PBS, and permeabilized in 70% EtOH at −20° C. DNA strand breaks in cells undergoing apoptosis may be indirectly labeled with bromodeoxyuridine by terminal transferase and detected by FITC-conjugated monoclonal antibody to bromodeoxyuridine using the APO-BRDU kit according to manufacturer's protocol. Cells may be counterstained with 5 μg/ml propidium iodide containing RNase A for detection of total DNA, and two-color analysis of DNA strand breaks and cell cycle may be achieved by flow cytometry. Flow cytometric analysis may be performed on a BD LSR II Flow Cytometer equipped with three excitation lasers (405-nm, 488-nm and 633-nm). For DNA fragmentation analysis, FITC and PI signals may be collected by 488-nm octagon detection array with no color compensation. 10,000 events gated on single cell populations may be collected and post-acquisition analysis may be performed using software FlowJo 7.6.5.
Table 6 is an analysis of DNA fragmentation of U-87 MG cells after 72 hour treatment with 25 nM docetaxel. DNA fragmentation may be determined by flow cytometry as described above.

[4] = system: U-87 MG cells; experiment: Caspase-3/7 activation in U-87 MG cells; format: cell-based; conditions: 25 nM, 72 hours, vs vehicle control
Experimental: as §1
U-87 MG cells harvested by trypsinization may be pooled with media plus washes and pelleted by centrifugation. The cells may be re-suspended in complete media diluted 1:10 with PBS (1% FBS/PBS). […]
Cleavage by active caspase-3/7 releases the dye within the cell and results in translocation to the nucleus, binding to DNA and high fluorescence. […] A cell cycle reagent may be a proprietary formulation containing the DNA intercalating dye propidium iodide and RNAse A. The multiparametric fluorescent detection of individual cells may be performed by a cell analyzer, a microcapillary flow cytometer equipped with a 532-nm laser, a forward scatter and two fluorescence (YLW 576/26, RED 680/30) detectors. […]

[5] = system: U-87 MG cells; experiment: PS externalization (Annexin V staining) in U-87 MG cells; format: cell-based; conditions: 25 nM, 72 hours, vs vehicle control
Experimental: as §1, §2

[6] = system: U-87 MG cells; conditions: 25 nM, 72 hours; "has been shown"; cited from earlier work

CC(=O)O[C@@]12CO[C@@H]1C[C@H](O)[C@@]1(C)C(=O)[C@H](O)C3=C(C)[C@@H](OC(=O)[C@H](O)[C@@H](NC(=O)OC(C)(C)C)c4ccccc4)C[C@@](O)([C@@H](OC(=O)c4ccccc4)[C@H]21)C3(C)C [Docetaxel, docetaxel]
decrease in U-87 MG cell number [1]: 20% | decrease in U-87 MG cell number ([1]; listed as docetaxel): approximately 20% | G1 [2]: 39.7 ± 4.8* | G2/M [2]: 22.1 ± 4.4 | S [2]: 26.7 ± 1.7* | Sub-G0 [2]: 9.9 ± 3.9* | DNA Frag (+) Apoptotic bodies (upper left quadrant) [3]: 0.10 ± 0.0% | DNA Frag (+) Cells (upper right quadrant) [3]: 2.11 ± 1.69% | DNA Frag (−) Apoptotic bodies (lower left quadrant) [3]: 3.57 ± 1.65% | DNA Frag (−) Cells (lower right quadrant) [3]: 94.2 ± 0.07% | caspase-3/7 activation [4]: significant increase | Annexin V positive cells [5]: significant increase | arresting cell growth in U-87 MG cells, compared with temozolomide [6]: as effective as temozolomide

Reference: patent US10279190B2, “Treating disease with resonance generating electromagnetic fields” (Anapole Technologies Inc., priority 2016, dated 2019)
